# US20130005678A1, “Methods and Compositions for Treating or Ameliorating Cancer Using Gemcitabine-5'-Elaidate” (CLAVIS PHARMA ASA, priority 2010, published 2013)
# What was measured:
# human glioma cells U373 [1] = assay: Antitumor activity in human glioma U373 grown intracerebrally; type: in vivo
# Method: NMRI male mice are inoculated with human glioma cells U373 intracerebrally. The tumors at the injection site (at the surface of the brain), as well as the intracerebral tumors, are evaluated. Gemcitabine-5′-elaidic acid ester is administered intraperitoneally on Days 4-8, 11-15, 18-22, and 25-29 and is active at 4 mg/kg per injection.
# human glioma cells U373 [2] = assay: Antitumor activity in human glioma xenograft model U373 (subcutaneous); type: in vivo; conditions: NCR mice, intraperitoneal
# Description: NCR mice are inoculated subcutaneously on Day 0 with human glioma cells U373. Treatment (intraperitoneal) starts on Day 7, either every third day or weekly.
# Co6044 = assay: Oral activity and schedule dependency in mice with Co6044; type: in vivo, human
# Method: Oral administration of Gemcitabine-5′-elaidic acid ester and gemcitabine is tested in NCr:nu/nu mice for potential antitumor activity. Treatment is every third day repeated five times. In a follow-up experiment, the antitumor activity of oral and intraperitoneal treatment is compared in this colon cancer model (Co6044). The doses for oral treatment with Gemcitabine-5′-elaidic acid ester and gemcitabine are lower (20, 30, or 40 mg/kg) than in the previous experiment.
# In this experiment, the antitumor activity of oral Gemcitabine-5′-elaidic acid ester in three different administration schedules is compared: every 3 days times 5, daily times 5, and once weekly times 2. Three doses are tested per schedule.
# WiDr-LF cell line = assay: Combination with pemetrexed under low folate conditions (WiDr-LF); type: cell-based, human; conditions: MTT assay
# Method: The cell lines A549 human NSCLC and WiDr human colon carcinoma are used to determine the combination index and also the effect of Gemcitabine-5′-elaidate on the cell cycle. A sulforhodamine B colorimetric assay is used to determine growth inhibition after 72 hours. Pemetrexed combinations are tested using the MTT assay. Combinations with pemetrexed are also tested in the WiDr-LF cell line, which are WiDr cells cultured under low folate conditions. The IC25 and IC50 values (inhibitory concentrations at 25% or 50%, respectively) are calculated. The IC25 value is used for combinations with serial dilutions of oxaliplatin or docetaxel, and the IC50 value is used for pemetrexed combinations. Median effect analysis is performed.
# [3] = system: CCRF-CEM human leukemia cell line; assay: Triphosphate accumulation and retention in CCRF-CEM cells; type: cell-based
# Description: Drugs: Gemcitabine-5′-elaidate was provided by Clavis Pharma (Oslo, Norway), tetra hydro uridine (THU) was from Calbiochem (Merck, Darmstadt, Germany), dipyridamole and ara-C were from Sigma-Aldrich (St. Louis, Mo., USA) and dFdC was from Eli-Lilly (Indianapolis, Ind., USA). The radioactively labeled drugs were obtained from Moravek (Brea, Calif., USA); the drugs were labeled with tritium on the 5-C site of the base. A mix of radioactive and non-radioactive compounds was made for exposure of cells; dFdC and CP-4126 were used at a final concentration of 8.9 μM and a specific activity of 586 and 391 mCi/mmol, respectively.
# Cell lines: For the experiments the CCRF-CEM human leukemia cell line and its dCK negative variant (CEM/dCK−) were used. The cell lines were cultured in RPMI medium (BioWhittaker, Verviers, Belgium) supplemented with 10% fetal calf serum (PAA laboratories, Pasching, Austria) and HEPES buffer (BioWhittaker). Of the nucleoside influx transporters, the CEM cell line only expresses the equilibrative nucleoside transporter (hENT) and not the concentrative nucleoside transporter (hCNT). Belt et al. Adv. Enzyme Regul., 1993, 33, 235-52. Dipyridamole (DP) was used to inhibit the influx of the drugs by hENT. In order to get a clean picture, THU was also added to inhibit deamination of ara-C and dFdC.
# Triphosphate accumulation: Cells were treated with 1 and 10 μM of dFdC, while for the lipophilic analogs 10 and 100 μM was used. The cells were incubated for 60 minutes and retention of the triphosphates was investigated after 60 and 120 minutes incubation in drug-free medium. Dipyridamole was added to inhibit drug influx by the hENT transporter. After incubation the cell pellet was resuspended in ice-cold PBS and incubated for 20 minutes at 4° C. with 40% trichloroacetic acid. After centrifugation (10,000 g, 10 min, 4° C.) the supernatant was treated with a 2-fold excess of trioctylamine/1,1,2-trichlorotrifluorethane (1:4) and spun down (10,000 g, 1 min) and the aqueous phase was stored at −20° C. until analysis by HPLC on a Whatman Partisphere SAX column (GE healthcare, Chalfont St. Giles, UK) using gradient (dFdC-TP) elution as described earlier. Noordhuis et al., Leuk. Res., 1996, 20, 127-34; Ruiz van Haperen, et al., Biochem. Pharmacol., 1994, 48, 1327-39.
# [4] = system: THX, Lox, MOLT4, and MOLT4/C; assay: Protection by dipyridamole from cell killing in vitro (FIG. 4); type: cell-based; conditions: four cell lines
# Description: The number on the Y axis is the fold protection by dipyridamole from administration of gemcitabine and gemcitabine-5′-elaidate.
# pancreatic cancer = assay: Treatment of a pancreatic cancer patient with low hENT1 expression; type: in vivo, human
# Method: An individual is diagnosed with pancreatic cancer. The patient provides a sample. The sample contains cancerous cells from the patient. The sample comes from a biopsy of the tumor, from circulating tumor cells, or from another source.
# The sample is tested to determine the level of expression of hENT1 or another nucleoside transporter. The level is detected by immunohistochemistry, by determining the amount of mRNA relevant to hENT1 in the sample, or by other known means.
# The testing of the sample takes place at a testing facility. The physician or their staff ships the sample to this facility. The sample is fixed or frozen for shipment. The sample is mixed with an antibody prior to shipment and analyzed when it arrives at the facility or the sample is shipped with no antibody added prior to shipment.
# The nucleoside transporter level is compared to a control. The control is non-cancerous cells from the patient or is samples from another population. The control samples are analyzed at the same time as the sample or the analysis is based upon computer stored data where the comparison is done by using a rule based upon previously collected and characterized control data. This comparison allows for the classification of the sample as a “high,” “low,” or “normal,” sample based upon nucleoside transporter levels. […]
smiles,measurement,setting,value
CCCCCCCC/C=C/CCCCCCCC(=O)OC[C@H]1O[C@@H](n2ccc(N)nc2=O)C(F)(F)[C@@H]1O [gemcitabine-5′-elaidic acid ester],antitumor activity,"human glioma cells U373 [1]; NMRI male mice, U373 intracerebrally, intraperitoneally Days 4-8, 11-15, 18-22, 25-29, 4 mg/kg per injection",active
same,activity intracerebrally,human glioma cells U373 [1]; after intraperitoneal administration,active intracerebrally
same,antitumor effect compared with gemcitabine,human glioma cells U373 [2]; dosed Days 7 and 14 (weekly),better than that of gemcitabine
same,antitumor effect compared with gemcitabine,human glioma cells U373 [2]; every third day schedule from Day 7,equal to gemcitabine
same,antitumor activity,"Co6044; every 3 days times 5, daily times 5, once weekly times 2, all tested schedules",High antitumor activity
same,dose dependence of activity,Co6044; three doses per schedule,dose dependent
same,antagonistic activity of combination with pemetrexed under low folate conditions,WiDr-LF cell line,slightly reduced
same,retention of dFdC-TP concentration after washing away the drugs,[3]; 60 and 120 minutes in drug-free medium,retained at a similar level
same,effect of dipyridamole on dFdC-TP accumulation,[3]; hENT inhibited by dipyridamole,even increased the concentration of triphosphates
same,protection by dipyridamole (blocking transporters) against cell killing,[4],does not protect
same,response to treatment,pancreatic cancer,responds favorably
